Reference: patent US6673827B1, “Methods of treating fungal infections with inhibitors of NAD synthetase enzyme” (priority 1999, dated 2004)
Like-named read-outs stand apart in the source and are kept apart here.

Legend:
[1] = system: Candida albicans (ATCC 10231); assay: Minimum Inhibitory Concentration (MIC) against yeast, broth dilution; format: cell-based; conditions: for MIC: Candida albicans, read-out: MIC Candida albicans (ATCC 10231)
[2] = target: T1, NAD synthetase (recombinant protein from B. subtilis; purified) (Bacillus subtilis, UniProt P08164); assay: NAD synthetase enzyme inhibition assay (coupled enzymatic assay, HTS); format: biochemical
T1 construct: made in house
T1 sequence (P08164 whole entry): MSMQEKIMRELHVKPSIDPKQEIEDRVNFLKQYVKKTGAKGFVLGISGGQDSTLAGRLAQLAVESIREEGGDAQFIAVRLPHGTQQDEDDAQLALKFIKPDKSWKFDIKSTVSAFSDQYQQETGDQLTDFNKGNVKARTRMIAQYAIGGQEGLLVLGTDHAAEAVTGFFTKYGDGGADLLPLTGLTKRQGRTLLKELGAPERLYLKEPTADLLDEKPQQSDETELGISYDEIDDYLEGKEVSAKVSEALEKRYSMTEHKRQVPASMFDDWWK
Description: NAD Synthetase Enzyme Inhibition Assay-Determination of Test Compound Concentrations Providing 50% Inhibition ([…]) of the Maximum Enzyme Rate
The potential inhibitory activity of the synthetic compounds was determined by the use of a coupled enzymatic assay. The coupled assay involves two steps as summarized below. [drawing 98]
The measurement of inhibitory activities of the test compounds was facilitated by the use of a high through-put screening system (HTS system). The HTS system utilizes an integrated Sagian 2M ORCA robotic system coordinating the functions of a Beckman Biomek 2000 liquid handler and a Molecular Devices SpectraMax Plus spectrophotometer. The 2M ORCA robotic station is responsible for the movement of all hardware and the integration of multiple stations on the worksurface. The Biomek 2000 is programmed to perform all phases of liquid dispensing and mixing. The SpectraMax Plus spectrophotometer is equipped to monitor absorbance in a 96-well plate format.
The Biomek 2000 mixes these components utilizing a predefined mixing program. […] The reaction is monitored by measuring the increase in absorbance at 340 nm (NADH). The linear portion of the reaction is monitored for 180 sec. The initial velocity is determined using Softmax Pro, the software supplied with the Molecular Devices SpectrMax Plus spectrophotometer.
The test compounds were supplied as a stock solution with a concentration of 50 mM dissolved in 100% dimethyl sulfoxide (DMSO). An initial screen was conducted on all compounds using a 2 or 3 concentration screen. The 2 panel screen used concentrations of 0.2 mM and 0.1 mM for the compounds. The 3 panel screen used concentrations of 0.2 mM, 0.1 mM, and 0.05 mM. […] The IC50 values for each compound were determined graphically from a plot of % inhibition versus […].

[3] = system: Candida albicans KJP-000531594; assay: In vitro study of inhibition of growth and lethality against yeast (MIC/MLC susceptibility test), isolate C; format: cell-based; conditions: Candida albicans, Candida albicans, 1st pair of lines
[4] = system: Candida tropicalis (ATCC 28707-amphotericin B-resistant); assay: Minimum Inhibitory Concentration (MIC) against yeast, broth dilution; format: cell-based; conditions: Candida tropicalis, ATCC28707, 37° C., 20 hours, mean of duplicate
[5] = system: Cryptococcus neoformans SLP-BC0012854; assay: In vitro study of inhibition of growth and lethality against yeast (MIC/MLC susceptibility test), isolate H; format: cell-based; conditions: Cryptococcus neoformans, Cryptococcus neoformans, 2nd pair of lines, isolate assigned by line order; for MFC: SLPBC0012854, read-out: Minimum Lethal Conc. (MLC)
[6] = system: Torulopsis glabrata JHC-BC9951635; assay: In vitro study of inhibition of growth and lethality against yeast (MIC/MLC susceptibility test), isolate E; format: cell-based; conditions: Torulopsis glabrata, 2nd pair of lines, isolate assigned by line order; for MIC / MFC: Nakaseomyces glabratus; for MFC: JHCBC9951635, read-out: Minimum Lethal Conc. (MLC)
[7] = system: Candida tropicalis ATCC 750; assay: In vitro study of inhibition of growth and lethality against yeast (MIC/MLC susceptibility test), isolate A; format: cell-based; conditions: Candida tropicalis, 2nd pair of lines, isolate assigned by line order; for MFC: ATCC750, read-out: Minimum Lethal Conc. (MLC)
[8] = system: Torulopsis glabrata ERH-BC9938274; assay: In vitro study of inhibition of growth and lethality against yeast (MIC/MLC susceptibility test), isolate F; format: cell-based; conditions: Torulopsis glabrata, 1st pair of lines, isolate assigned by line order; for MIC / MFC: Nakaseomyces glabratus; for MFC: ERHBC9938274, read-out: Minimum Lethal Conc. (MLC)
[9] = system: Candida albicans LH-000664533; assay: In vitro study of inhibition of growth and lethality against yeast (MIC/MLC susceptibility test), isolate D; format: cell-based; conditions: Candida albicans, Candida albicans, 2nd pair of lines, isolate assigned by line order; for MFC: LH000664533, read-out: Minimum Lethal Conc. (MLC)
[10] = system: Candida tropicalis ATCC 28707; assay: In vitro study of inhibition of growth and lethality against yeast (MIC/MLC susceptibility test), isolate B; format: cell-based; conditions: Candida tropicalis, 1st pair of lines, isolate assigned by line order; for MFC: ATCC28707, read-out: Minimum Lethal Conc. (MLC)
[11] = system: Candida tropicalis (ATCC 750); assay: Minimum Inhibitory Concentration (MIC) against yeast, broth dilution; format: cell-based; conditions: Candida tropicalis, ATCC750; 37° C., 20 hours, mean of duplicate
[12] = system: Cryptococcus neoformans DLB-1027594CNC; assay: In vitro study of inhibition of growth and lethality against yeast (MIC/MLC susceptibility test), isolate G; format: cell-based; conditions: Cryptococcus neoformans, Cryptococcus neoformans, 1st pair of lines, isolate assigned by line order; for MIC / MFC: DLB1027594CNC; for MFC: read-out: Minimum Lethal Conc. (MLC)
[13] = 37° C., 20 hours, mean of duplicate
[14] = KJP000531594, 24 h, read at 24 hr, isolate not given, assigned by line order and MLC of Table 4B, read-out: Minimum Inhibitory Conc. (MIC), 24 hr.
[15] = KJP000531594, 48 h, read at 48 hr, isolate assigned by line order, read-out: Minimum Inhibitory Conc. (MIC), 48 hr.
[16] = SLPBC0012854, 48 h, read at 48 hr, read-out: Minimum Inhibitory Conc. (MIC), 48 hr.
[17] = SLPBC0012854, 72 h, read at 72 hr, read-out: Minimum Inhibitory Conc. (MIC), 72 hr.
[18] = JHCBC9951635, 24 h, read at 24 hr, read-out: Minimum Inhibitory Conc. (MIC), 24 hr.
[19] = JHCBC9951635, 48 h, read at 48 hr, read-out: Minimum Inhibitory Conc. (MIC), 48 hr.
[20] = ATCC750, 24 h, read at 24 hr, read-out: Minimum Inhibitory Conc. (MIC), 24 hr.
[21] = ATCC750, 48 h, read at 48 hr, read-out: Minimum Inhibitory Conc. (MIC), 48 hr.
[22] = ERHBC9938274, 24 h, read at 24 hr, read-out: Minimum Inhibitory Conc. (MIC), 24 hr.
[23] = ERHBC9938274, 48 h, read at 48 hr, read-out: Minimum Inhibitory Conc. (MIC), 48 hr.
[24] = LH000664533, 24 h, read at 24 hr, read-out: Minimum Inhibitory Conc. (MIC), 24 hr.
[25] = LH000664533, 48 h, read at 48 hr, read-out: Minimum Inhibitory Conc. (MIC), 48 hr.
[26] = ATCC28707, 24 h, read at 24 hr, read-out: Minimum Inhibitory Conc. (MIC), 24 hr.
[27] = ATCC28707, 48 h, read at 48 hr, read-out: Minimum Inhibitory Conc. (MIC), 48 hr.
[28] = IC50 (μg/mL) for Inhibit. of NAD Synthetase, table of structures used in the yeast assay (Example 4)
[29] = 48 h, read at 48 hr, read-out: Minimum Inhibitory Conc. (MIC), 48 hr.
[30] = 72 h, read at 72 hr, read-out: Minimum Inhibitory Conc. (MIC), 72 hr.

COC(=O)c1cc2ccccc2n1CCCCCCCCOC(=O)Cc1ccc([N+](C)(C)C)cc1 [Compound 985]
1.6 µg/mL: MIC Candida albicans (ATCC 10231) [1, 13]

C[N+](C)(C)c1ccc(CC(=O)OCCCCCCCCn2ccc3cc(OCc4ccccc4)ccc32)cc1 [Compound 749]
1.6 µg/mL: MIC Candida albicans (ATCC 10231) [1, 13]

COC(=O)c1cc2ccccc2n1CCCCCCCCCOC(=O)Cc1ccc([N+](C)(C)C)cc1 [Compound 986]
2.3 µg/mL: MIC Candida albicans (ATCC 10231) [1, 13]

COC(=O)c1cc2ccccc2n1CCCCCCCOC(=O)Cc1ccc([N+](C)(C)C)cc1 [Compound 984]
0.78 µg/mL: MIC ([1]; ATCC10231, 20 h)

COC(=O)c1cc2cc(OCc3ccccc3)ccc2n1CCCCCCCCOC(=O)c1ccc[n+](C)c1 [Compound 977]
1.6 µg/mL: MIC Candida albicans (ATCC 10231) [1, 13]

C[n+]1cccc(C(=O)OCCCCCCCCCn2ccc3ccccc32)c1 [Compound 970]
0.8 µg/mL: MIC Candida albicans (ATCC 10231) [1, 13]
20 µM: IC50 ([2]; read-out: IC50: concentration of test compound producing 50% inhibition of the NAD synthetase enzyme rate, Table 1, recombinant B. subtilis NAD synthetase, absorbance at 340 nm)

C[N+](C)(C)c1ccc(CC(=O)OCCCCCCCCOc2ccc(OCc3ccccc3)cc2)cc1.[I-] [Compound 1094]
31.7 µM: IC50 [2, 28]
1 µg/mL: MIC [3, 14] | MIC [5, 16] | MIC [5, 17] | MIC [6, 19] | Minimum Inhibitory Conc. (MIC), 24 hr. ([6]; read at 24 hr) | MIC [7, 20] | MIC [7, 21] | MIC [8, 23] | Minimum Inhibitory Conc. (MIC), 24 hr. ([8]; read at 24 hr) | MIC [12, 29] | MIC [12, 30]
2 µg/mL: MIC [3, 15] | MFC [5] | MIC [9, 24] | MIC [9, 25] | MFC [10] | MFC [12]
4 µg/mL: MFC [6] | MFC [7] | MFC [8]
0.78 µg/mL: MIC [4] | MIC [11]
20 µM: IC50 [2]
0.5 µg/mL: MIC [6, 18] | MIC [8, 22] | MIC [10, 26] | MIC [10, 27]
8 µg/mL: MFC [9]
6.2 µg/mL: MIC ([1]; ATCC10231, 37° C., 20 hours, mean of duplicate)

COC(=O)c1cc2cc(OCc3ccccc3)ccc2n1CCCCCCCOC(=O)c1ccc[n+](C)c1 [Compound 976]
3.1 µg/mL: MIC Candida albicans (ATCC 10231) [1, 13]

COC(=O)c1cc2ccccc2[n+](C)c1-c1c[nH]c2ccccc12.[I-] [Compound 1500]
4 µg/mL: MIC [10, 26]
> 32 µg/mL: MIC [3, 15] | MFC ([3]; KJP000531594, isolate assigned by line order, read-out: Minimum Lethal Conc. (MLC)) | MFC [5] | MIC [6, 19] | MFC [6] | MFC [7] | MIC [7, 21] | MIC [8, 23] | MFC [8] | MIC [9, 25] | MFC [9] | MFC [12]
>32 µg/mL: Minimum Inhibitory Conc. (MIC), 24 hr. ([3]; read at 24 hr, isolate not given, assigned by line order and MLC of Table 4B) | Minimum Inhibitory Conc. (MIC), 72 hr. ([5]; read at 72 hr) | Minimum Inhibitory Conc. (MIC), 24 hr. ([6]; read at 24 hr) | Minimum Inhibitory Conc. (MIC), 24 hr. ([7]; read at 24 hr) | Minimum Inhibitory Conc. (MIC), 24 hr. ([8]; read at 24 hr) | Minimum Inhibitory Conc. (MIC), 24 hr. ([9]; read at 24 hr) | Minimum Inhibitory Conc. (MIC), 72 hr. ([12]; read at 72 hr)
> 450 µM: IC50 [2, 28]
32 µg/mL: MIC [3, 14] | MIC [5, 16] | MIC [5, 17] | MIC [6, 18] | MIC [7, 20] | MIC [8, 22] | MIC [9, 24] | MIC [12, 29] | MIC [12, 30]
8 µg/mL: MFC [10] | MIC [10, 27]
